Patent US20080134931A1, “Plasterboards Provided With Antimicrobial Effect” (priority 2005, published 2008)
Read-outs that look alike come from different tables or passages of the source. Each block holds one molecule with its values, some of them ahead of it.

Assays:
[1] = system: mixture of moulds: Penicillium glaucum, Chaetomium globosum, Aspergillus niger, Aureobasidium pullulans; assay: Microbiological resistance of plasterboard treated with OPP in the gypsum core after inoculation with a fungal mixture, humid environment
Description: For checking the effectiveness of a plasterboard treated with OPP in the gypsum core, the resistance was investigated in the laboratory after inoculation with a fungal mixture. For this purpose, sandwich-type plasterboard samples having the dimensions 14×5 cm are transferred to a 1 litre powder bottle and suspended by the bottle cap. At the start of the experiment, the test specimens thus prepared are immersed once in a mixture of the following moulds to simulate a strong fungal attack:
The mould species are material pests well known to the person skilled in the art and are therefore suitable for a qualifying conclusion about the degree of antimicrobial protection of a product treated with an OPP or the sodium or potassium salt thereof and optionally further active components. The sample boards are stored at room temperature over a period of up to 8 weeks, a water vapour-saturated atmosphere being continuously ensured by maintaining the initial amount of water at the bottom of the vessel (direct contact between plasterboard and water is not permitted). The assessment of the test specimens is effected at certain times and is carried out according to the following rating scheme:
0=no growth on the surface
1=slight growth (<10% of the surface infested)
2=moderate growth (<50% of the surface infested)
3=strong growth on the surface
Microbiological resistance of a plasterboard contaminated once in a humid environment

Aspergillus flavus = assay: Minimum inhibitory concentration and synergism (Kull synergy index) of OPP/TBZ; format: cell-based; details: read-out: Amount of pure active substances which suppress growth (QA, QB; minimum inhibitory concentration)
Description: For improving the overall performance of an antimicrobial treatment, the use of active substance mixtures is customary for compensating, for example, for gaps in the activity of one component or for optimizing the costs of preservation.
The synergism found for the mixture according to the invention can be determined via the following mathematical formula (cf. F. C. Kull, P. C. Elisman, H. D. Sylwestrowicz and P. K. Mayer, Appl. Microbiol. 9, 538 (1961):
Qa=amount of component A in the active substance mixture which achieves the desired effect, i.e. no microbial growth,
QA=amount of component A which, when used alone, suppresses the growth of the micro-organisms,
Qb=amount of component B in the active substance mixture which suppresses the growth of the micro-organisms,
QB=amount of component B which, when used alone, suppresses the growth of the micro-organisms.
Synergism of o-phenylphenol (OPP)/thiabendazole (TBZ)
Using the test micro-organism, Aspergillus flavus, the minimum inhibitory concentration of the active substance combinations listed in Table 2 were investigated.

SMILES: Oc1ccccc1-c1ccccc1 [OPP, o-phenylphenol]
Rating (mould growth on plasterboard surface) ([1]; 300 ppm OPP in the gypsum core, 1 week, water vapour-saturated atmosphere, room temperature): 0/0 | Rating (mould growth on plasterboard surface) ([1]; 300 ppm OPP in the gypsum core, 3 weeks): 0/0 | Rating (mould growth on plasterboard surface) ([1]; 300 ppm OPP in the gypsum core, 4 weeks): 0/0 | Rating (mould growth on plasterboard surface) ([1]; 300 ppm OPP in the gypsum core, 8 weeks): 0/0 | Rating (mould growth on plasterboard surface) ([1]; 500 ppm OPP in the gypsum core, 1 week): 0/0 | Rating (mould growth on plasterboard surface) ([1]; 500 ppm OPP in the gypsum core, 3 weeks): 0/0 | Rating (mould growth on plasterboard surface) ([1]; 500 ppm OPP in the gypsum core, 4 weeks): 0/0 | Rating (mould growth on plasterboard surface) ([1]; 500 ppm OPP in the gypsum core, 8 weeks): 0/0 | Rating (mould growth on plasterboard surface) ([1]; 750 ppm OPP in the gypsum core, 1 week): 0/0 | Rating (mould growth on plasterboard surface) ([1]; 750 ppm OPP in the gypsum core, 3 weeks): 0/0 | Rating (mould growth on plasterboard surface) ([1]; 750 ppm OPP in the gypsum core, 4 weeks): 0/0 | Rating (mould growth on plasterboard surface) ([1]; 750 ppm OPP in the gypsum core, 8 weeks): 0/0 | Concentration of use from which good effectiveness was found ([1]; based on the weight of the gypsum core): ≥ 300 ppm | MIC (Aspergillus flavus): 100 µg/mL

MIC (Aspergillus flavus; substance used alone): 500 µg/mL
SMILES: c1ccc2[nH]c(-c3cscn3)nc2c1 [TBZ, thiabendazole, reference compound]
